In ChEMBL document CHEMBL1201862, “PubChem BioAssay data set” (2004):
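96-well plates; 48 h exposure; 5 concentrations. Endpoints by linear interpolation between flanking doses. Not reached: highest tested concentration assigned. Abbreviation: GI50, concentration required for 50% inhibition of growth.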 Active and inactive are the calls of the source. Cut-off read from the data, not from the text of the source: active = GI50 up to about 1.1 µM and inactive = higher.

How the values were obtained:
Test in all cases: NCI-60 cell line screen, 48 h
M14 = system: M14
COLO 205 = system: COLO 205
OVCAR-5 = system: OVCAR-5
UACC-257 = system: UACC-257
HCC 2998 = system: HCC 2998
MOLT-4 = system: MOLT-4
U-251 = system: U-251
DU-145 = system: DU-145
786-0 = system: 786-0
SF-295 = system: SF-295
T47D = system: T47D
NCI-H522 = system: NCI-H522
HOP-92 = system: HOP-92
HOP-62 = system: HOP-62
SF-268 = system: SF-268
UO-31 = system: UO-31
NCI-H460 = system: NCI-H460
HCT-116 = system: HCT-116
SK-MEL-28 = system: SK-MEL-28
HL-60 = system: HL-60
MCF7 = system: MCF7
SK-MEL-2 = system: SK-MEL-2
NCI-H23 = system: NCI-H23
BT-549 = system: BT-549
LOX IMVI = system: LOX IMVI
NCI/ADR-RES = system: NCI/ADR-RES
RXF 393 = system: RXF 393
SW-620 = system: SW-620
A549 = system: A549
HT-29 = system: HT-29
K562 = system: K562
MDA-MB-231 = system: MDA-MB-231
CAKI-1 = system: CAKI-1
OVCAR-3 = system: OVCAR-3
SNB-19 = system: SNB-19
OVCAR-8 = system: OVCAR-8
Hs-578T = system: Hs-578T
SF-539 = system: SF-539
RPMI-8226 = system: RPMI-8226
EKVX = system: EKVX
Malme-3M = system: Malme-3M
SR = system: SR
MDA-MB-435 = system: MDA-MB-435
SK-OV-3 = system: SK-OV-3
HCT-15 = system: HCT-15
IGROV-1 = system: IGROV-1
A498 = system: A498
SK-MEL-5 = system: SK-MEL-5
UACC-62 = system: UACC-62
MDA-N = system: MDA-N
KM12 = system: KM12
CCRF-CEM = system: CCRF-CEM
TK-10 = system: TK-10
PC-3 = system: PC-3
ACHN = system: ACHN
SNB-75 = system: SNB-75
NCI-H226 = system: NCI-H226
SN12C = system: SN12C

## COc1ccc(Nc2nc3ccccc3n3cccc23)cc1OC
M14
  GI50: 15.8 µM (inactive)
COLO 205
  GI50: 14.4 µM (inactive)
OVCAR-5
  GI50: 32.7 µM (inactive)
UACC-257
  GI50: 16 µM (inactive)
HCC 2998
  GI50: 14.4 µM (inactive)
MOLT-4
  GI50: 9.98 µM (inactive)
U-251
  GI50: 16.9 µM (inactive)
DU-145
  GI50: 17.1 µM (inactive)
786-0
  GI50: 15.4 µM (inactive)
SF-295
  GI50: 13.2 µM (inactive)
T47D
  GI50: 4.06 µM (inactive)
NCI-H522
  GI50: 16 µM (inactive)
HOP-92
  GI50: 34.4 µM (inactive)
HOP-62
  GI50: 16.3 µM (inactive)
SF-268
  GI50: 21.9 µM (inactive)
UO-31
  GI50: 19.5 µM (inactive)
NCI-H460
  GI50: 12.9 µM (inactive)
HCT-116
  GI50: 16.9 µM (inactive)
SK-MEL-28
  GI50: 15.1 µM (inactive)
HL-60
  GI50: 0.0528 µM (active)
MCF7
  GI50: 16.1 µM (inactive)
SK-MEL-2
  GI50: 19.2 µM (inactive)
NCI-H23
  GI50: 14.8 µM (inactive)
BT-549
  GI50: 18.5 µM (inactive)
LOX IMVI
  GI50: 14.4 µM (inactive)
NCI/ADR-RES
  GI50: 17.4 µM (inactive)
RXF 393
  GI50: 12.9 µM (inactive)
SW-620
  GI50: 16.2 µM (inactive)
A549
  GI50: 17.5 µM (inactive)
HT-29
  GI50: 7.74 µM (inactive)
K562
  GI50: 21 µM (inactive)
MDA-MB-231
  GI50: 15.3 µM (inactive)
CAKI-1
  GI50: 25.2 µM (inactive)
OVCAR-3
  GI50: 19.1 µM (inactive)
SNB-19
  GI50: 33.7 µM (inactive)
OVCAR-8
  GI50: 15.9 µM (inactive)
Hs-578T
  GI50: 37.9 µM (inactive)
SF-539
  GI50: 16.6 µM (inactive)
RPMI-8226
  GI50: 11.8 µM (inactive)
EKVX
  GI50: 25.7 µM (inactive)
Malme-3M
  GI50: 18.9 µM (inactive)
SR
  GI50: 12.8 µM (inactive)
MDA-MB-435
  GI50: 13.8 µM (inactive)
SK-OV-3
  GI50: 27 µM (inactive)
HCT-15
  GI50: 13.6 µM
IGROV-1
  GI50: 20.9 µM (inactive)
A498
  GI50: 17.9 µM (inactive)
SK-MEL-5
  GI50: 11.9 µM (inactive)
UACC-62
  GI50: 14.3 µM (inactive)
MDA-N
  GI50: 15.9 µM (inactive)
KM12
  GI50: 13.1 µM (inactive)
CCRF-CEM
  GI50: 1.05 µM (active)
TK-10
  GI50: 16.5 µM (inactive)
PC-3
  GI50: 11.7 µM (inactive)
ACHN
  GI50: 21 µM (inactive)

## COc1ncc(/C=C2\OC(=O)c3ccccc32)c(OC)n1
M14
  GI50: 72.3 µM (inactive)
COLO 205
  GI50: > 100 µM (inactive)
OVCAR-5
  GI50: > 100 µM (inactive)
UACC-257
  GI50: 57.3 µM (inactive)
HCC 2998
  GI50: 76 µM (inactive)
MOLT-4
  GI50: 41 µM (inactive)
U-251
  GI50: 13.6 µM (inactive)
DU-145
  GI50: 88.9 µM (inactive)
786-0
  GI50: 9.1 µM (inactive)
SF-295
  GI50: 4.19 µM (inactive)
SNB-75
  GI50: 6.44 µM (inactive)
T47D
  GI50: 23.6 µM (inactive)
NCI-H522
  GI50: 26.1 µM (inactive)
HOP-92
  GI50: 47.5 µM (inactive)
HOP-62
  GI50: 12.1 µM (inactive)
SF-268
  GI50: 32.6 µM (inactive)
UO-31
  GI50: 12.9 µM (inactive)
NCI-H460
  GI50: 17.9 µM (inactive)
HCT-116
  GI50: > 100 µM (inactive)
SK-MEL-28
  GI50: 56.1 µM (inactive)
HL-60
  GI50: > 100 µM (inactive)
MCF7
  GI50: 25.8 µM (inactive)
NCI-H23
  GI50: > 100 µM (inactive)
BT-549
  GI50: 0.402 µM (active)
LOX IMVI
  GI50: 7.16 µM (inactive)
NCI/ADR-RES
  GI50: 40.5 µM (inactive)
RXF 393
  GI50: 7 µM (inactive)
NCI-H226
  GI50: 66.1 µM (inactive)
SW-620
  GI50: > 100 µM (inactive)
A549
  GI50: 17.5 µM (inactive)
HT-29
  GI50: 64.6 µM (inactive)
K562
  GI50: 29.2 µM (inactive)
MDA-MB-231
  GI50: > 100 µM (inactive)
CAKI-1
  GI50: 0.21 µM (active)
OVCAR-3
  GI50: 24.9 µM (inactive)
SNB-19
  GI50: 26.5 µM (inactive)
OVCAR-8
  GI50: 8.13 µM (inactive)
Hs-578T
  GI50: 10.1 µM (inactive)
SF-539
  GI50: 12.7 µM (inactive)
RPMI-8226
  GI50: 5.94 µM (inactive)
EKVX
  GI50: 23.5 µM (inactive)
Malme-3M
  GI50: 10.7 µM (inactive)
SR
  GI50: 30.1 µM (inactive)
MDA-MB-435
  GI50: 77.8 µM (inactive)
HCT-15
  GI50: 65.2 µM
IGROV-1
  GI50: 4.48 µM (inactive)
A498
  GI50: 12.3 µM (inactive)
SK-MEL-5
  GI50: 9.95 µM (inactive)
SN12C
  GI50: > 100 µM (inactive)
MDA-N
  GI50: 50 µM (inactive)
KM12
  GI50: > 100 µM (inactive)
CCRF-CEM
  GI50: 39.1 µM (inactive)
TK-10
  GI50: 16.2 µM (inactive)
PC-3
  GI50: 39 µM (inactive)
ACHN
  GI50: 24.4 µM (inactive)
